Reference: patent US4092420A, “Novel soft N-chloroamino alcohol derivatives exhibiting antibacterial activity” (INTERx Research Corporation, priority 1977, dated 1978)

Assays:
K. pneumoniae [1] = test: Minimal inhibitory concentration (MIC), Example V; assay type: cell-based; conditions: Klebsiella pneumoniae
Description: MINIMAL INHIBITORY CONCENTRATION OF 2-AMINO-2-METHYL-1-PROPYL
^a Minimal inhibitory concentration expressed in parts per million
sequence inhibited the test organism at the higher concentrations.
THE ANTIBACTERIAL SCREEN - EXAMPLE V
Klebsiella pneumoniae ATCC# 10031
THE ANTIBACTERIAL SCREEN - EXAMPLES W - Z (Autotiter IV)
(a) Compounds. All compounds to be screened are weighed (approx. 10 mg) on the day preceding the test date. Each compound is solubilized on the day of assay in appropriate solvent and diluted automatically in the Autotiter IV with distilled water (buffer can be employed here also).
(§1) Bacteria: Staphylococcus aureas Smith (or 209), Escherichia coli AB 1932-1, 1100/B22 and Vogel, Streptococcus pyogenes C203 Salmonella typhimurium 14028, Bacillus subtilis 6051-1, Klebsiella pneumoniae 10031, Pseudomonas aeruginosa 9027, Bordetella bronchiseptica 4617 and Staphylococcus epidermidis 12228.
(c) Inocula. Prior to utilization in the Autotiter IV, all bacteria are cultured for 18-20 hr. (37° C) in tryptose phosphate broth (TP), except, S. pyogenes C203, which is cultured in Brain Heart Infusion broth plus 10% normal horse serum. Immediately prior to testing, each culture is adjusted to an optical density of 0.10 (650 nm), employing a Bausch & Lomb Spectronic 20, and diluted subsequently into double strength medium to approximately 2 × 10^5 viable organisms per ml.
1. An automated injector system dispenses 0.05 ml of diluent (sterile H2 O or buffer) to all cups of the autotiter trays from rows 2 through 7.
2. The loops (for sequential dilutions of the compounds are moistened by immersion into 70% ethyl alcohol. After removal of excess alcohol by blotting, the loops are moved to the first row of cups in the autotray containing 0.10 ml of the compound to be diluted and tested (usually, this initial concentration is 500 to 1000 mcg/ml, but can be varied upward or downward). The loops are lowered and sequentially transfer the diluted solutions of the compound through row 7.
Immediately after each dilution is made, each cup is automatically inoculated with 0.05 ml of the appropriate test organism. This inoculation derives from a second injector system containing the organism in double-strength medium. The total operation consists of the automatic dilution of a single compound in each of 8 rows of the Autotiter try.
After these operations, we reverse the tray and a second compound is diluted over the other one-half of the tray and inoculated, subsequently, with 8 organisms. Thus, for each Autotiter Tray, two compounds are screened against 8 different organisms at dilutions ranging from 1:2 to 1:128.
(e) Incubation. The inoculated Autotiter trays are incubated at 37° C for 18 - 20 hr. At the end of this period, each tray is examined for the presence or absence of growth (turbidity). The lowest concentration of the compound inhibiting growth is recorded as the minimal inhibitory concentration (MIC).

E. coli = test: Contact germicidal efficiency (sterilization time); assay type: cell-based, Escherichia coli; conditions: Example Y, pH 4.6, in presence of horse serum, 468 ppm (80 PPMCl+)
Description: CONTACT GERMICIDAL EFFICIENCY OF
(§2) ^a Time intervals screened 0.5, 1, 2, 3, 4 and 5 minutes.
(§3) ^a Time intervals screened 0.5, 1, 2, 3, 4, 5, 6, 7, 8, 9 and 10
(§4) ^a Time intervals screened 0.5, 1, 2, 3, 4, and 5 minutes.
(§5) ^b Time intervals screened 0.5, 1, 2, 3, 4, 5, 6, 7, 8, 9 and 10
(§6) Immediately preceding the screen, the compound is weighed and diluted with a buffer or other solvent to give the final concentration desired. The buffer or solvent chosen depends on the conditions of the screen and could be one of the following: 0.1 M NaOAc, pH 4.6; 0.1 M NaH2 PO4, pH 7.0; 0.1 M Na2 B4 O7, pH 8.8; 35% methanol in one of the aforementioned buffers; 10% Triton × 100 in buffer, etc.
(§7) The positive chlorine concentration of the test solution is then determined iodometrically.
Media used for the Screen are Nutrient Broth, BBL# 11479 and Nutrient Agar, BBL# 11472 prepared according to label directions. The broth is dispensed in 75 ml amounts of flasks for overnight cultures and in 5 ml amounts to culture tubes for subculturing during the Screen. Agar plates are prepared as usual. […]
A 0.2 ml portion of the overnight culture is inoculated into 5 ml of 0.9% NaCl for use in controls. […] The earliest subculture time at which no growth is present in the subculture tube is considered the endpoint and is recorded as that time, e.g., 7 minutes. […]

S. epidermidis = test: Contact germicidal efficiency (sterilization time); assay type: cell-based, Staphylococcus epidermidis; conditions: S. epidermidis
Description: (§8) CONTACT GERMICIDAL EFFICIENCY OF N-CHLORAMINES AS A FUNCTION
as §2, §3, §4, §5, §6, §7
(§9) Media used for the Screen are Nutrient Broth, BBL# 11479 and Nutrient Agar, BBL# 11472 prepared according to label directions. The broth is dispensed in 75 ml amounts of flasks for overnight cultures and in 5 ml amounts to culture tubes for subculturing during the Screen. Agar plates are prepared as usual.
(§10) Overnight cultures are prepared by inoculating from stock cultures into the 75 ml flasks of nutrient broth and incubating for 15 hours at 37° C.
(§11) The iodometrically characterized test solution is dispensed in 5 ml amounts to seven small stoppered flasks. The organisms are screened one at a time as follows:
(§12) A 0.2 ml portion of the overnight culture is inoculated into 5 ml of 0.9% NaCl for use in controls. A 0.2 ml portion of the overnight culture is inoculated into a flask containing 5 ml of the test solution, an automatic timer is simultaneously triggered and the solution mixed. At time intervals of 30 seconds, 1, 2, 3, 4, 5, 6, 7, 8, 9, and 10 minutes a loopful of the inoculated solution is subcultured into 5 ml of sterile nutrient broth and mixed by a Vortex Genie Mixer, the high dilution serving to stop the action of the compound. At the end of the ten minute screen, the entire procedure is repeated for each of the remaining six organisms. All of the subculture tubes are incubated at 37° C and checked for signs of growth by turbidity at 24 hr., 48 hr., 3, 5, and 7 days. The earliest subculture time at which no growth is present in the subculture tube is considered the endpoint and is recorded as that time, e.g., 7 minutes.
(§13) The test solution is prepared and characterized as above but is made up at twice the concentration desired. The solution is diluted 1:1 with Rehydrated Tissue Culture Dessicated Horse Serum, Difco #5357-72 and dispensed in a 5 ml amount to a small flask. The mixture is incubated at Room Temperature for 30 minutes to allow denaturation of the compound by the serum and then screened as above.
(§14) The 5 ml mixture of serum and test solution are prepared in sequence to allow as close to 30 minutes as possible before the beginning of the screen of each organism.
as §1

K. pneumoniae [2] = test: Contact germicidal efficiency (sterilization time); assay type: cell-based, Klebsiella pneumoniae
Description: as §8, §2, §3, §4, §5, §6, §7, §9, §10, §11, §12, §13, §14, §1

[3] = Example X, pH 4.6, no horse serum, IV c 404 ppm (69 PPMCl+), IV g 489 ppm (143 PPMCl+)
[4] = Example X, pH 7.0, no horse serum, IV c 1886 ppm (323 PPMCl+), IV g 409 ppm (120 PPMCl+)
[5] = Example X, pH 9.3, no horse serum, IV c 1704 ppm (292 PPMCl+), IV g 319 ppm (94 PPMCl+)
[6] = Example Y, pH 4.6, in presence of horse serum, 468 ppm (80 PPMCl+)

Structure (SMILES): CC(C)(COC(=O)C(C)(C)C)NCl [IV c, 2-N-Chloroamino-2-methyl-1-propyl 2,2-dimethylproprionate]
- MIC (K. pneumoniae [1]): > 250 µg/mL
- Sterilization Time (E. coli): > 10 min
- Sterilization Time (S. epidermidis; [3]): 0.5 min
- Sterilization Time (S. epidermidis; [4]): 3 min
- Sterilization Time (S. epidermidis; [5]): 4 min
- Sterilization Time (S. epidermidis; [6]): > 10 min
- Sterilization Time (K. pneumoniae [2]; [3]): 0.5 min
- Sterilization Time (K. pneumoniae [2]; [4]): 2 min
- Sterilization Time (K. pneumoniae [2]; [5]): 2 min
- Sterilization Time (K. pneumoniae [2]; [6]): > 10 min
